Source: patent publication US20100323434A1, “Compartmentalized Nerve Culture System” (priority 2009, published 2010)

Experiments:
[1] = test system: Primary hippocampal neurons; assay: Oxidative stress by H2O2 added selectively to the somal compartment of the microfluidic device; format: cell-based; settings: added to somal compartment of one group of neuronal cell bodies (2 mM peroxide media); over the course of 24-72 h
[2] = test system: Dorsal root ganglia (DRG) neuronal cultures; format: cell-based, rats; settings: rat, 24 h, 25 ng/mL
Source text: A two-step photolithographic process was utilized to create the master mold. Silicon wafers (University Wafer, MA) were coated with SU-8 2002 (Microchem; MA), spun, and soft baked using parameters specified by the manufacturer to yield a resist thickness of 2.5 microns. An array of microchannels, each with dimensions: width=10 microns, length=500 microns, were defined by UV light exposure through a high resolution DPI transparency (Cad/Art, OR). The exposed substrate was once again baked, to enhance polymer cross-linking post exposure, and developed as stated in the resist technical sheet to fully define the microchannels. […]
In order to identify the susceptibility of axons and cell bodies to paclitaxel, we added 25 ng/mL of paclitaxel to either axon or cell body chambers and continued to culture the DRGs for another 24 hours. Once images of the fluorescently labeled cells and axons were captured, we used ImageJ to calculate axon lengths and calculated percent change in axon length compared to 24 hours before taxol exposure.
Studies on the neuroprotective effect of EPO were performed with concurrent administration of paclitaxel, which was applied to either the neuronal cell body or axonal side. […] Axon degeneration was defined as the change in axon length over the total axon length expressed as a percentage.

decrease in the length of axons [2] [%] | Compound | neuronal cell death and axonal degeneration [1]
– | OO [H2O2] | induction of neuronal cell death and accompanying axonal degeneration
28.6 ± 11.2 | CC(=O)O[C@H]1C(=O)[C@@]2(C)[C@H]([C@H](OC(=O)c3ccccc3)[C@]3(O)C[C@H](OC(=O)[C@H](O)[C@@H](NC(=O)c4ccccc4)c4ccccc4)C(C)=C1C3(C)C)[C@]1(OC(C)=O)CO[C@@H]1C[C@@H]2O [paclitaxel, Paclitaxel, reference compound] | –
